Data published in PubChem BioAssay AID977621 (Broad Institute, 2014).
Records with an inconclusive call do not appear. Activity calls are given as the source filed them.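 How the source made its calls: active means Wild-type ribosome reporter drop at least double the humanized mutant ribosome reporter drop, growth loss under a set limit; inconclusive means no clear call, values can overlap the other calls; inactive means the rest.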

Columns and labels:
[1] = system: E. coli H69 humanized mutant ribosome RFP strain growth, fluorescence, 24 h; experiment: wild-type E. coli growth inhibition versus H69 humanized strain – H69 mutant RFP, wild-type GFP, cherry-pick, dose response (AID 977621); settings: test 2;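 further: wild-type GFP and H69 mutant RFP strains grown together 50/50 in each well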
[2] = system: E. coli wild-type GFP strain growth, fluorescence, 24 h; experiment: as above
[3] = E. coli mixed culture, 24 h, measured here: total growth OD600, test 2

Compound	AC50 [1]	AC50 [2]	AC50 [2, 3]
CCOc1ccc(S(=O)(=O)N(C)c2ccc(OCC(=O)NCc3cccnc3)cc2)cc1	> 100 µM	–	–
C=CCNC(=O)c1ccccc1CCc1ccccc1	> 100 µM	–	–
CCc1cccc(NC(=O)c2ccc3c(=O)n4c(nc3c2)CCCCC4)c1	> 100 µM	–	–
Cc1cc(C)c(OCCN(C)Cc2ccccc2)c(Br)c1	> 100 µM	–	–
CSC1=NCCN1C(=O)Cc1ccc(-c2ccccc2)cc1	–	> 100 µM (inactive)	48.3 µM
Cc1ccc(C(=O)C2CCN(CC(=O)Nc3nc(C)cs3)CC2)cc1	–	> 100 µM (inactive)	7.66 µM
C=CCN(CC=C)C(=O)c1ccc2nc(Cc3ccc(OC)c(OC)c3)oc2c1	–	> 100 µM (inactive)	> 100 µM
COc1ccc(CNS(=O)(=O)c2ccc3c(c2)NC(=O)C(C)S3)cc1 (stereo not given)	–	> 100 µM (inactive)	–
c1ccc(CNc2ncnc3sccc23)cc1	–	> 100 µM (inactive)	–
O=C1OC[C@@H]2CCCN2C(=O)[C@@H](CC(=O)N(CCO)Cc2ccccc2)C/C=C\C[C@H]1Cc1ccc(F)cc1	–	–	> 100 µM
CCN(c1ccccc1)S(=O)(=O)c1ccc(Cl)c(NC(=O)CSc2n[nH]c(N)n2)c1	–	> 100 µM (inactive)	–
CCCn1c(C(C)Nc2nc(-c3ccc(C)cc3)cs2)nc2ccccc21 (stereo not given)	–	–	> 100 µM
CC(OC(=O)CCc1c[nH]c2ccccc12)C(=O)c1ccccc1 (stereo not given)	–	> 100 µM (inactive)	46.5 µM
CCN(c1ccccc1)S(=O)(=O)c1ccc(Cl)c(C(=O)NCc2ccco2)c1	–	–	33.8 µM
COc1ccc(Cc2nnc(Nc3ccc(C)cc3)o2)cc1OC	–	> 100 µM (inactive)	–
C[C@H](CO)N1C[C@H](C)[C@@H](CN(C)Cc2ccncc2)OCc2ccccc2-c2c(n(C)c3ccccc23)C1=O	–	–	40.2 µM
O=C(CN1CCC(n2nnc3cc(F)ccc32)CC1)N1CCc2ccccc2C1	–	> 100 µM (inactive)	–
COc1cccc(OC)c1OCCCOc1cccc2cccnc12	–	> 100 µM (inactive)	–
O=C(c1cc2cc(F)ccc2[nH]1)N1CCN(Cc2ccc3c(c2)OCO3)CC1	–	> 100 µM (inactive)	24.5 µM
Fc1cccc(Cl)c1CSc1ccc(-c2ccco2)nn1	–	–	> 100 µM
CC1CCCC(NC(=O)COC(=O)[C@@H]2CC(O)CN2S(=O)(=O)c2ccc3c(c2)OCCO3)C1C (stereo not given in full)	–	–	> 100 µM
Cc1ccc2c(c1C)OC(=O)CC2c1ccccc1 (stereo not given)	–	> 100 µM (inactive)	–
C[C@@H]1CN([C@@H](C)CO)C(=O)c2cc(NS(=O)(=O)c3ccccc3)ccc2O[C@@H]1CN(C)Cc1ccc(C(=O)Nc2ccccc2N)cc1	–	–	50.6 µM

Compound	AC50 [1]	AC50 [2]	AC50 [2, 3]
O=C(CSc1n[nH]c(=O)n1C1CC1)Nc1ccc(Cl)c(Cl)c1	–	> 100 µM (inactive)	–
CC(C)(C)c1ccc(CCC2OCC(CN3CCOCC3)O2)cc1 (stereo not given)	–	> 100 µM (inactive)	–
Cc1nc(N2CCCCC2)sc1C(=O)c1ccc(SCCO)c([N+](=O)[O-])c1	–	> 100 µM (inactive)	34.5 µM
CC(=O)c1c(C)[nH]c(C(=O)Nc2nc(C)cs2)c1C	–	–	> 100 µM
O=C(c1ccccc1)c1ccc2nc(-c3ccc(NC(=O)c4ccccc4Br)cc3)[nH]c2c1	–	> 100 µM (inactive)	> 100 µM
O=C(COC(=O)c1cccc(S(=O)(=O)N2CCCCC2)c1)NCc1cccc(Cl)c1	–	> 100 µM (inactive)	–
COc1cccc(CN(C)Cc2nc(Cc3ccccc3Cl)no2)c1	–	–	51.7 µM
COc1ccccc1C1CCN(Cc2cccc([N+](=O)[O-])c2)CC1	–	> 100 µM (inactive)	> 100 µM
CCOC(=O)c1c(CS(=O)(=O)c2ccccc2)n(C)c2cc(Br)c(O)cc12	–	> 100 µM (inactive)	> 100 µM
COc1cc(NC(=O)C(c2ccccc2)c2ccccc2)c(C(=O)O)cc1OC	–	> 100 µM (inactive)	–
CCOC(=O)c1cnc2c(c(C)nn2C)c1Oc1ccc(OC)cc1	–	–	> 100 µM
CN(C)CCCn1c(=O)n(Cc2ccco2)c(=O)c2c3c(sc21)CCCCC3	–	–	> 100 µM
COCCNc1cc(-c2ccccc2)nc2cc(-c3cccc(F)c3)nn12	–	> 100 µM (inactive)	–
Cc1ccccc1-n1ncc2c(SCC(=O)N3c4ccccc4CC3C)ncnc21 (stereo not given)	–	> 100 µM (inactive)	–
CSc1nc(SCCN(C)C)c2c3c(sc2n1)COC(C)(C)C3	–	> 100 µM (inactive)	> 100 µM
CN1C(=O)c2cc(NC(=O)c3cccc(F)c3)ccc2OC[C@H]2O[C@@H](CC(=O)N3CCc4ccccc4C3)CC[C@@H]21	–	> 100 µM (inactive)	–
O=C(CCc1nc2ccccc2s1)OCC(=O)c1ccc[nH]1	–	> 100 µM (inactive)	–
COc1ccc(N2C(=O)C3C(C2=O)C3(c2ccccc2)c2ccccc2)cc1 (stereo not given)	–	> 100 µM (inactive)	–
O=C(NCc1ccco1)c1ccc2ccccc2n1	–	–	> 100 µM
O=C(CCCOc1ccccc1)NCCc1nc2ccccc2[nH]1	–	> 100 µM (inactive)	–
CSc1nc(SC(C)C(=O)O)c2c3c(sc2n1)COC(C)(C)C3 (stereo not given)	–	> 100 µM (inactive)	–
CC1CCCC(NC(=O)COC(=O)Cc2c[nH]c3ccccc23)C1C (stereo not given)	–	–	> 100 µM
CCOc1ccccc1/C=C/c1cc(C(=O)O)c2ccccc2n1	–	–	35.3 µM

Compound	AC50 [1]	AC50 [2]	AC50 [2, 3]
CCOc1ccc(CCNC(=O)CCn2ccc3cc(S(=O)(=O)N4CCCC4)ccc32)cc1	–	> 100 µM (inactive)	41.4 µM
COc1cccc(NC(=O)COC(=O)Cc2ccc(Cl)cc2)c1	–	–	> 100 µM
COc1ccc(OCCC(=O)OCC(=O)NCCC2=CCCCC2)cc1	–	–	> 100 µM
CCc1ccc(NC(=O)COC(=O)CCCC2=NS(=O)(=O)c3ccccc3N2)cc1	–	> 100 µM (inactive)	–
CCOC(=O)c1[nH]c2ccccc2c1NC(=O)c1ccc(Br)o1	–	> 100 µM (inactive)	–
Cc1cc(C(=O)COC(=O)c2ccc(Br)o2)c(C)n1C	–	> 100 µM (inactive)	48.4 µM
Cc1cc(C(=O)COC(=O)c2ccc(O)cc2)c(C)n1CC(F)(F)F	–	–	> 100 µM
Cc1cc(C(=O)NCCC2=CCCCC2)ccc1[N+](=O)[O-]	–	> 100 µM (inactive)	–
O=C(NCc1nnc(SCc2ccccc2)n1-c1ccccc1)C12CC3CC(CC(C3)C1)C2	–	> 100 µM (inactive)	38.6 µM
COc1cccc(-c2ccc(SCc3ccccn3)nn2)c1	–	> 100 µM (inactive)	48.2 µM
COc1ccc(OCC(O)CNS(=O)(=O)c2cccc(Cl)c2)cc1 (stereo not given)	–	–	> 100 µM
Cc1cc(NC(=O)CSc2nccn2-c2cccc(C)c2C)no1	–	> 100 µM (inactive)	> 100 µM
Cc1nc(-c2ccc([N+](=O)[O-])cc2)c(-c2ccccc2)o1	–	> 100 µM (inactive)	–
O=C(Cn1c2[n+](c3ccc(C(F)(F)F)cc31)CCCCC2)c1ccc2c(c1)OCCO2	–	> 100 µM (inactive)	–
CO[C@@H]1CN(C)C(=O)c2ccc(NC(=O)c3nc4ccccc4s3)cc2OC[C@@H](C)N(Cc2ccncc2)C[C@@H]1C	–	52 µM (inactive)	–
CN(c1ccccc1)S(=O)(=O)c1cccc(C(=O)OCC(=O)NCc2ccco2)c1	–	> 100 µM (inactive)	–
CSc1ccccc1C(=O)NCCc1ccc(S(=O)(=O)N2CCCCC2)cc1	–	> 100 µM (inactive)	–
NS(=O)(=O)c1cccc(NC(=O)c2cccc(-c3ccc(O)cc3)c2)c1	–	> 100 µM (inactive)	–
CCOC(=O)Cc1csc(SCC(=O)Nc2cc(C)ccc2OC)n1	–	> 100 µM (inactive)	> 100 µM
O=C(c1cc(COc2c(F)cccc2F)on1)N1C[C@H]2CC[C@H]1C2	–	> 100 µM (inactive)	–
CC1(C(=O)NS(=O)(=O)c2ccc3c(c2)CCO3)CCN1C(=O)c1ccccc1CCc1ccccc1 (stereo not given)	–	> 100 µM (inactive)	–
CCOC(=O)c1nc(C)sc1-c1ccnn1S(=O)(=O)c1ccc(C)cc1	–	> 100 µM (inactive)	–
Nc1ccc(C(=O)Nc2ccc3nc(-c4ccncc4)[nH]c3c2)cc1	–	> 100 µM (inactive)	–

Compound	AC50 [1]	AC50 [2]	AC50 [2, 3]
CCCN(CC1CC1)C(=O)CSc1ncnc2sccc12	–	> 100 µM (inactive)	–
O=C(Nc1ccc(Cl)cn1)c1ccc([N+](=O)[O-])o1	–	–	> 100 µM
COc1cccc(-c2ccc([C@@H]3[C@H](CO)N4CCCCN(S(=O)(=O)c5cccs5)C[C@@H]34)cc2)c1	–	> 100 µM (inactive)	33.5 µM
O=S1(=O)c2ccc(Br)cc2OCCC2CCCCN21 (stereo not given)	–	> 100 µM (inactive)	> 100 µM
OC(COc1ccc(Cl)cc1)CN1CCN(c2ccccn2)CC1 (stereo not given)	–	> 100 µM (inactive)	–
CC(NCc1ccc(S(N)(=O)=O)cc1)C(=O)Nc1cc([N+](=O)[O-])ccc1Cl (stereo not given)	–	> 100 µM (inactive)	–
O=[N+]([O-])c1ccc2nc(-c3ccccc3[N+](=O)[O-])[nH]c2c1	–	> 100 µM (inactive)	> 100 µM
COc1cccc(NC(=O)C2CCC(CNS(=O)(=O)c3cccc4cccnc34)CC2)c1 (stereo not given)	–	> 100 µM (inactive)	–
N#CC1CN(Cc2ccccc2)CN(Cc2ccccc2)C1	–	> 100 µM (inactive)	–
Clc1ccccc1C1CC(c2ccccc2)=Nc2ccccc2N1 (stereo not given)	–	> 100 µM (inactive)	–
O=C(Nc1ccc2c(c1)OCO2)c1ccc([N+](=O)[O-])cc1[N+](=O)[O-]	–	> 100 µM (inactive)	–
CC1(C(=O)NS(=O)(=O)c2cccc(C#N)c2)CCN1C(=O)C1(c2ccc(Cl)cc2)CCC1 (stereo not given)	–	> 100 µM (inactive)	> 100 µM
Cc1cc(C)c(OCC(=O)OCC(=O)N2CCc3ccccc3C2)c(C)c1	–	> 100 µM (inactive)	> 100 µM
COc1ccc(NS(=O)(=O)c2ccc(Oc3c(C#N)cccc3C#N)cc2)cc1	–	> 100 µM (inactive)	27.5 µM
COC(=O)[C@H](Cc1c[nH]c2ccccc12)NCc1cccc(B(O)O)c1	–	> 100 µM (inactive)	> 100 µM
Cc1ccsc1C(=O)C1CCCN(Cc2cc(F)ccc2-n2cccn2)C1 (stereo not given)	–	–	> 100 µM
Cc1nc2ncnn2c(N2CCC(C(=O)NC3CCCC3)CC2)c1Cc1ccccc1	–	–	> 100 µM
CCN(CC(=O)Nc1ccccc1OC)CC(=O)Nc1c(Cl)ccc(C)c1Cl	–	> 100 µM (inactive)	–
COc1ccc(Cn2c(=O)c3[nH]cnc3n(-c3ccc(C)cc3)c2=O)cc1	–	> 100 µM (inactive)	–
N#CCC(=O)Nc1ccc(C(=O)OCC(=O)Nc2ccc3ccccc3c2)cc1	–	> 100 µM (inactive)	–
Cc1csc2c(N3CCC(C(=O)O)CC3)ncnc12	–	> 100 µM (inactive)	–
CCCCNC(=O)c1onc(CSc2cc(C)cc(C)c2)c1C(=O)O	–	–	34.2 µM
S=C1SCN(Cc2cccnc2)CN1Cc1cccnc1	–	–	> 100 µM
